Laboratory results published in paper PMC12314892, “Macrocyclic Phage Display for Identification of Selective Protease Substrates” (Journal of the American Chemical Society, 2025).
*1 amine or outer side, *2 acyl side, *3 side chain or, on linkers, in order; H or OH if unused. Where a SMILES comes first, the peptide text is derived from it. Bridges are numbered along the chain shown (N, C = ends). The star is where a group is joined. X1 = NC(=O)Cc1cc(=O)oc2cc(NC(=O)[C@@H]3CCCN3C(=O)Cn3nc(C[*:1])cc3C[*:2])ccc12; X2 = NC(=O)Cc1cc(=O)oc2cc(NC(=O)[C@@H]3CCCN3C(=O)Cn3nc(C[*:2])cc3C[*:1])ccc12; AMC = Cc1cc(=O)oc2cc(N*)ccc12; Cbz = O=C(OCc1ccccc1)*

What was measured:
Assay type in all cases: biochemical
Recombinant Human FAPα [1] = biological target: T1, Recombinant Human FAPα (Homo sapiens, UniProt Q12884); test: Kinetic evaluation of substrates; details: for Km / kcat/KM / kcat: 10 nM FAPα, 37 °C, 60 min, Michaelis-Menten fit, triplicates; for Km: 50 mM Tris, 1 M NaCl, 1 mg/mL BSA, pH 7.5, ex/em 355/460 nm; for Km / kcat: ± SD
T1 construct: purchased R&D Systems 3715-SE-010
T1 sequence (Q12884 1-760): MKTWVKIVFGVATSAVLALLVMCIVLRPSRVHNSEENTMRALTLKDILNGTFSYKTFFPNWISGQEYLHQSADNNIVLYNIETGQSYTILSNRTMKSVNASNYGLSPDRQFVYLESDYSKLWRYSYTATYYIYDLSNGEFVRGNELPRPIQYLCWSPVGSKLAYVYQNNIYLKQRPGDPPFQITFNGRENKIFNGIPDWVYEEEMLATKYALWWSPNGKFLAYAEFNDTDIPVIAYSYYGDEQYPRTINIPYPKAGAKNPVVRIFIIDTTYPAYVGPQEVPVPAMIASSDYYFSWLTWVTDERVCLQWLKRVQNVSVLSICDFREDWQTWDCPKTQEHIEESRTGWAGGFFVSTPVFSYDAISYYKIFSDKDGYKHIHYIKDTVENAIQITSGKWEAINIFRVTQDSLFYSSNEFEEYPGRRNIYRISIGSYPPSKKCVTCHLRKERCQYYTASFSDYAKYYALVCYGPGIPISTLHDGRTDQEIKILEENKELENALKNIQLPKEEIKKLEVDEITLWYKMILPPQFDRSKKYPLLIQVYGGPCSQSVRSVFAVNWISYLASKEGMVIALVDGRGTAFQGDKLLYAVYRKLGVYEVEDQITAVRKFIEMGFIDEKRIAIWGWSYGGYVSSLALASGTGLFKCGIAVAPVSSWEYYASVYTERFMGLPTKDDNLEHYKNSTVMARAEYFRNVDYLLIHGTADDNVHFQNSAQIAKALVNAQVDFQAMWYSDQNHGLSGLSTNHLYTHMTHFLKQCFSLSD
Procedure: (§1) Fluorogenic Substrate Cleavage Assay
(§2) The following proteases were used for the activity assay: Recombinant Human FAPα Protein, CF (R&D Systems, Catalog No.: 3715-SE-010), Recombinant Human Prolyl Oligopeptidase/PREP Protein, CF (R&D Systems, Catalog No.: 4308-SE-010). Recombinant Human DPP9 Protein, CF (R&D Systems, Catalog No.: 5419-SE-010). Recombinant Human DPP4 Protein (Sino Biological, Catalog No.: 10688-HNCH-10). The buffers used for the activity assay were: FAPα - 50 mM Tris, 1 M NaCl, 1 mg/mL BSA, pH 7.5, PREP- 25 mM Tris, 250 mM NaCl, 2.5 mM DTT, pH 7.5 (DTT was freshly added immediately before use), DPP9- 25 mM Tris, pH 7.5, DPP4- 25 mM Tris, pH
(§3) 7.5. The following commercial substrates were used: zGP-AMC (Bachem,Catalog No.: […]
(§4) conducted in Greiner Bio-One black microplates of 384 wells and polystyrene F-bottom (Catalog No.: 784076). All compounds were dissolved in DMSO at a concentration of 10 mM and then diluted into the respective buffer to the desired final concentration. The protease was added to the specified concentration before the fluorescence measurements. For fluorescence measurements, 2 μL of substrate was further diluted into 6 μL of buffer, followed by addition of 2 μL of enzyme in buffer. For no enzyme controls 2 μL of substrate was diluted into 8 μL of buffer.
(§5) The fluorescence was measured using a Cytation 3 plate reader (BioTek). All experiments have at least three technical replicates. All assays were conducted at 37°C for a minimum of 90 min, unless otherwise noted. Fluorescence measurements were performed at ex/em, 355/460 nm for ACC substrates. The substrates velocity was quantified by calculating the slope of the linear phase of the reaction as relative fluorescence units (RFU) per min.
(§6) Kinetic evaluation of substrates
To order to determine the kcat/KM, the previously indicated proteases were tested under their corresponding buffer conditions. Substrates were serially diluted in water, and 2 µL of each dilution was added to 6 µL of assay buffer in a 384-well plate. The plate was briefly centrifuged to ensure proper mixing and to eliminate air bubbles. Fluorescence measurements were initiated by adding 2 µL of the protease solution (prepared in activity buffer) to each well, yielding a final volume of 10 µL. Reactions were monitored at 37 °C for 60 minutes using a plate reader set to excitation/emission wavelengths of 355/460 nm. Control wells without enzyme contained 8 µL of assay buffer, instead of enzyme, and 2 µL of substrate. All measurements were performed in at least triplicate. The initial linear portion of each fluorescence progress curve was used to calculate initial reaction velocities (RFU/min). Calibration curves using free AMC were generated under the corresponding buffer and assay conditions to allow extrapolation of RFU values to µM concentrations. Michaelis-Menten kinetic parameters K M, kcat and kcat/,KM were determined using […]
GraphPad Prism version 10.4.1. […]
determined due to poor model fit. […]

Recombinant Human DPP9 = biological target: T2, Recombinant Human DPP9 (Homo sapiens, UniProt Q86TI2); test: Kinetic evaluation of substrates; details: for SI (selectivity index, coefficient of the proteases kcat/Km), FAPα vs DPP9: kcat/KM FAPα over kcat/KM DPP9
T2 construct: purchased R&D Systems 5419-SE-010
T2 sequence (Q86TI2 whole entry): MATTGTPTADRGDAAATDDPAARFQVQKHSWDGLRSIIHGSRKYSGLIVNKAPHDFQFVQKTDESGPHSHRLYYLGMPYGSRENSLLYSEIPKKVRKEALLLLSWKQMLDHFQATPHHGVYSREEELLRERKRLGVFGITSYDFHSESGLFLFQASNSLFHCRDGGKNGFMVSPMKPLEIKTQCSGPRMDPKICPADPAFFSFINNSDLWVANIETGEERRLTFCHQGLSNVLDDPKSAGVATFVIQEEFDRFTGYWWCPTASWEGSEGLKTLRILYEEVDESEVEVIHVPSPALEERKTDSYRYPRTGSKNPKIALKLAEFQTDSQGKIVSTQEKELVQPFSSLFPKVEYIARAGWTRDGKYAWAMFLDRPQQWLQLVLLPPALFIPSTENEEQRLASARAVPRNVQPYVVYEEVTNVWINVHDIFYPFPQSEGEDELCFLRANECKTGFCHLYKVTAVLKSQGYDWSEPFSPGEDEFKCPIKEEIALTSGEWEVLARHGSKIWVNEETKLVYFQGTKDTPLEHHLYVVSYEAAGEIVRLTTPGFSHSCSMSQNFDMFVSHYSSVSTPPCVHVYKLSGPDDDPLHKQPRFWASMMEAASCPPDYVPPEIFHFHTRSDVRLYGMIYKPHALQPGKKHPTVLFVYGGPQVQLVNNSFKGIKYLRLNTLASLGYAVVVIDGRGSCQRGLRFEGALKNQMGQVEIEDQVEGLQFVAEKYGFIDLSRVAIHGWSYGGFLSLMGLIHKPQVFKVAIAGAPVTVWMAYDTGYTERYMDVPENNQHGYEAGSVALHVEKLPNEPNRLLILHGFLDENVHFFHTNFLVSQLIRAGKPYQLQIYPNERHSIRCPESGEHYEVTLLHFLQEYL
Procedure: as §1, §2, §3, §4, §5, §6
To order to determine the kcat/KM, the previously indicated proteases were tested under their corresponding buffer conditions. Substrates were serially diluted in water, and 2 µL of each dilution was added to 6 µL of assay buffer in a 384-well plate. The plate was briefly centrifuged to ensure proper mixing and to eliminate air bubbles. Fluorescence measurements were initiated by adding 2 µL of the protease solution (prepared in activity buffer) to each well, yielding a final volume of 10 µL. Reactions were monitored at 37 °C for 60 minutes using a plate reader set to excitation/emission wavelengths of 355/460 nm. Control wells without enzyme contained 8 µL of assay buffer, instead of enzyme, and 2 µL of substrate. All measurements were performed in at least triplicate. The initial linear portion of each fluorescence progress curve was used to calculate initial reaction velocities (RFU/min). Calibration curves using free AMC were generated under the corresponding buffer and assay conditions to allow extrapolation of RFU values to µM concentrations. Michaelis-Menten kinetic parameters K M, kcat and kcat/,KM were determined using GraphPad Prism version 10.4.1. In some cases, KM, kcat or kcat/,KM values could not be reliably determined due to poor model fit. […]

Recombinant Human FAPα [2] = biological target: T1, Recombinant Human FAPα; test: Fluorogenic substrate cleavage assay
Procedure: as §1, §2, §3, §4
as §5, with “min. […]” for “min.”

[3] = 6 nM DPP9, 37 °C, 60 min, Michaelis-Menten fit, triplicates

| SMILES | Km (Recombinant Human FAPα [1]) [µM] | kcat/KM (Recombinant Human FAPα [1]) [M⁻¹ s⁻¹] | kcat (Recombinant Human FAPα [1]) [s⁻¹] | SI (selectivity index, coefficient of the proteases kcat/Km), FAPα vs DPP9 (Recombinant Human DPP9) | selectivity for DPP4 (vs FAPα) (Recombinant Human FAPα [2]; Supplementary figure 11, 200 μM, 1 hour at 37°C, 2 nM DPP4 vs 10 nM FAPα, RFU/min) [fold] | SI (selectivity index, coefficient of the proteases kcat/Km), DPP4 vs FAPα (Recombinant Human FAPα [1]; kcat/KM DPP4 over kcat/KM FAPα) | Km (Recombinant Human DPP9; 6 nM DPP9, 25 mM Tris, pH 7.5, 37 °C, 60 min, Michaelis-Menten fit, triplicates, ± SD) [µM] | kcat (Recombinant Human DPP9; [3]) [s⁻¹] | kcat/KM (Recombinant Human DPP9; [3]) [M⁻¹ s⁻¹] | SI (selectivity index, coefficient of the proteases kcat/Km), DPP4 vs DPP9 (Recombinant Human DPP9; kcat/KM DPP4 over kcat/KM DPP9) | FAPα activity (substrate cleavage, RFU/min), in words (Recombinant Human FAPα [2]; substrate 200 μM, 10 nM FAPα, 37 °C, triplicates) |
| --- | --- | --- | --- | --- | --- | --- | --- | --- | --- | --- | --- |
| Cc1cc(=O)oc2cc(NC(=O)[C@@H]3CCCN3C(=O)CNC(=O)OCc3ccccc3)ccc12 [zGP-AMC] (Cbz-Gly-Pro-{AMC}) | 145 ± 60 | 155793 | 22.59 ± 4.99 | – | – | – | – | – | – | – | – |
| CC(C)C[C@@H]1NC(=O)[C@H](CC(N)=O)NC(=O)[C@H](CCC(N)=O)NC(=O)[C@H](Cc2ccccc2)NC(=O)[C@H](CO)NC(=O)[C@H](C(C)C)NC(=O)[C@@H](N)CSCc2cc(nn2CC(=O)N2CCC[C@H]2C(=O)Nc2ccc3c(CC(N)=O)cc(=O)oc3c2)CSC[C@@H](C(=O)NCC(N)=O)NC(=O)[C@H](CC(=O)O)NC1=O [FAP-33.2] (H-CVSFQNLDCG-NH2; linker 1-9 via X2; N-terminus assumed) | – | 23633 | 0.709 ± 0.034 | FAPα >>>DPP9 | – | – | – | – | – | – | – |
| Cc1cc(=O)oc2cc(NC(=O)[C@@H]3CCCN3C(=O)CN)ccc12 [GP-AMC] (H-Gly-Pro-{AMC}) | 103 ± 31 | 637 | – | – | 16 | 597 | 61 ± 11 | 0.21 | 3455 | 110 | – |
| CC(C)[C@@H]1NC(=O)[C@@H](N)CSCc2cc(n(CC(=O)N3CCC[C@H]3C(=O)Nc3ccc4c(CC(N)=O)cc(=O)oc4c3)n2)CSC[C@@H](C(=O)NCC(N)=O)NC(=O)[C@H](CC(=O)O)NC(=O)[C@H](C)NC(=O)[C@H](CC(N)=O)NC(=O)[C@H](CCC(N)=O)NC(=O)[C@H](Cc2ccccc2)NC(=O)[C@H](CO)NC1=O [FAP-33.2A6] (H-CVSFQNADCG-NH2; linker 1-9 via X1; N-terminus assumed) | – | 28312 | 0.906 ± 0.050 | FAPα >>>DPP9 | – | – | – | – | – | – | better substrate than the parent FAP-33.2 |
